Laboratory results as given in patent US20140128352A1, “COMPOUNDS AND METHODS FOR MODULATING MITOCHONDRIAL METABOLISM AND REACTIVE OXYGEN SPECIES PRODUCTION” (Buck Institute for Research on Aging, priority 2012, published 2014).
Read-outs that look alike come from different tables or passages of the source.

What was measured:
[1] = system: ubiquinone binding site of complex I (IQ); assay: High-throughput screen: ROS production from ubiquinone binding site of complex I (IQ), isolated skeletal muscle mitochondria; assay type: biochemical, rat; settings: for IQ: percent change in ROS from DMSO controls; for % Reduction in ROS production (IQ): Table 2, 5 mM succinate, compounds 2.5 μM, percent change from DMSO, positive control −100%
[2] = biological target: T1, flavin binding site of complex I (IF) (Rattus norvegicus, UniProt Q5XIH3); assay: High-throughput screen: ROS production from flavin binding site of complex I (IF); assay type: biochemical
T1 construct: freshly isolated muscle mitochondria were assayed; from tissue; host or cells: rat skeletal muscle mitochondria (Wistar, Harlan Laboratories)
T1 sequence (Q5XIH3 21-464 limits assumed, one chain of several): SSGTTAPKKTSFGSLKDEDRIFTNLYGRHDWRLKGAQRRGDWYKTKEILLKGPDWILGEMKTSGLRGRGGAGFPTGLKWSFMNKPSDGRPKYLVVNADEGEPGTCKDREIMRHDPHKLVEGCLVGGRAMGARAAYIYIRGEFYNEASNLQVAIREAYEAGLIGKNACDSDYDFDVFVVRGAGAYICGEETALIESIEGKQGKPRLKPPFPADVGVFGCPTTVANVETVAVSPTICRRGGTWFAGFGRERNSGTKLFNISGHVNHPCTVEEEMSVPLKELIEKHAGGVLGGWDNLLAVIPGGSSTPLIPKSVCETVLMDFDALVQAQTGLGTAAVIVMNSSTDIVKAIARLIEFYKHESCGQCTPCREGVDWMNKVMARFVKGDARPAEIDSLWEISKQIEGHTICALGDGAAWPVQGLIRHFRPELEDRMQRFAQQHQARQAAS
Procedure: (§1) Skeletal muscle mitochondria were isolated from 5-8 week old female Wistar rats (Harlan Laboratories). Minced muscle was homogenized in buffer containing bacterial protease Type VIII prior to differential centrifugation to separate mitochondria from other tissue components. Unless otherwise stated, freshly isolated muscle mitochondria were assayed in buffer containing 120 mM KCl, 5 mM HEPES, 1 mM EGTA, 0.3% (w/v) bovine serum albumin. Where indicated, CaCl2 was added to yield a final free concentration of 250 nM calcium at pH 7.0 at 37° C.
Master screening plates were prepared using a Biomek FX liquid handling workstation (Beckman) to transfer 1 μL of each compound into individual wells on 96-well storage plates (80 compounds per plate). […] Just prior to use, plates were brought to room temperature and diluted 300-fold with standard buffer (13.3X=33.3 μM). To monitor the performance of each assay throughout screening and to provide intra-plate normalization reference points, DMSO negative controls and known mitochondrial inhibitor positive controls were included on each Master compound plate.
(§2) Total amounts of superoxide and H2O2 production were determined fluorometrically as H2O2, without distinguishing between them, in the presence of exogenous superoxide dismutase (25 units/mL final), horseradish peroxidase (1 unit/mL final), and Amplex UltraRed (25 μM final) as described (Affourtit, C. et al. (2012) Measurement of proton leak and electron leak in isolated mitochondria. Methods Mol. Biol. 810: 165-82). Just prior to use, a bulk 3.3X solution was made in standard buffer and distributed into a 2 mL deep well 96-well transfer plate.
To assess the effects of a compound on ROS production from the flavin binding site of complex I (IF), Start Solution containing 5 mM glutamate, 5 mM malate and 4 μM rotenone was distributed into standard 96-well transfer plates. A Biomek FX workstation was programmed to dispense solutions into black 96-well assay plates. Solutions were dispensed to all assay plates in the following order: ROS Detection solution described in Example 3, Mitochondria solution described in Example 1 to a final concentration of 0.3 mg/ml, and Compound dilutions described in Example 2. Duplicate assay plates were made and each was initiated by the addition of 3.3X Start solution containing 5 mM glutamate, 5 mM malate and 4 μM rotenone. Plates were incubated in the dark at room temperature for 30-40 minutes before acquiring endpoint fluorescence using a Victor 3V plate reader (Perkin Elmer) equipped with 550/590 nm excitation/emission filters.
The fluorescence values in each well were scaled as the percent change from the intra-plate DMSO controls with the appropriate inhibitor positive controls defined as −100%. Following initial scaling, intra-plate normalized values were subjected to Tukey's two-way median polish to remove row and column dependent positional effects (Malo, N. et al. (2006) Statistical practice in high-throughput screening data analysis. Nat. Biotechnol. 24(2): 167-75).

[3] = biological target: T2, outer ubiquinone binding site of complex III (IIIQO) (Rattus norvegicus, UniProt P00159+P20788); assay: High-throughput screen: ROS production from outer ubiquinone binding site of complex III (IIIQO); assay type: biochemical; settings: for IIIQO: Table 8
T2 construct: freshly isolated muscle mitochondria were assayed; from tissue; host or cells: rat skeletal muscle mitochondria (Wistar, Harlan Laboratories)
Procedure: as §1
Compounds (10 mM in DMSO) were randomly selected from a library of 24,000 compounds obtained from ChemBridge and curated by the lab of Robert Hughes at the Buck Institute. Master screening plates were prepared using a Biomek FX liquid handling workstation (Beckman) to transfer 1 μL of each compound into individual wells on 96-well storage plates (80 compounds per plate). Master plates were sealed with foil and stored at −80° C. Just prior to use, plates were brought to room temperature and diluted 300-fold with standard buffer (13.3X=33.3 μM). To monitor the performance of each assay throughout screening and to provide intra-plate normalization reference points, DMSO negative controls and known mitochondrial inhibitor positive controls were included on each Master compound plate.
as §2
To assess the effects of a compound on ROS production from the outer ubiquinone binding site of complex III (IIIQO), Start Solution containing 5 mM succinate, 4 μM rotenone and 2.5 μM antimycin A was distributed into standard 96-well transfer plates. A Biomek FX workstation was programmed to dispense solutions into black 96-well assay plates. Solutions were dispensed to all assay plates in the following order: ROS Detection solution described in Example 3, Mitochondria solution described in Example 1 to a final concentration of 0.1 mg/ml, and Compound dilutions described in Example 2. Duplicate assay plates were made and each was initiated by the addition of 3.3X Start solution containing 5 mM succinate, 4 μM rotenone and 2.5 μM antimycin A. Plates were incubated in the dark at room temperature for 30-40 minutes before acquiring endpoint fluorescence using a Victor 3V plate reader (Perkin Elmer) equipped with 550/590 nm excitation/emission filters.
The fluorescence values in each well were scaled as the percent change from the intra-plate DMSO controls with the appropriate inhibitor positive controls defined as −100%. Following initial scaling, intra-plate normalized values were subjected to Tukey's two-way median polish to remove row and column dependent positional effects (Malo et al., 2006).

[4] = biological target: T3, succinate dehydrogenase/complex II (SDH) (Rattus norvegicus, UniProt P21913+Q641Z9+Q6PCT8+Q920L2); assay: High-throughput screen: ROS production from succinate dehydrogenase/complex II (SDH); assay type: biochemical; settings: for inhibition at 2.5 µM: Table 7; for inhibition at 2.5 µM / SDH: percent change in ROS from DMSO controls
T3 construct: freshly isolated muscle mitochondria were assayed; from tissue; host or cells: rat skeletal muscle mitochondria (Wistar, Harlan Laboratories)
T3 sequence (Q920L2 35-656): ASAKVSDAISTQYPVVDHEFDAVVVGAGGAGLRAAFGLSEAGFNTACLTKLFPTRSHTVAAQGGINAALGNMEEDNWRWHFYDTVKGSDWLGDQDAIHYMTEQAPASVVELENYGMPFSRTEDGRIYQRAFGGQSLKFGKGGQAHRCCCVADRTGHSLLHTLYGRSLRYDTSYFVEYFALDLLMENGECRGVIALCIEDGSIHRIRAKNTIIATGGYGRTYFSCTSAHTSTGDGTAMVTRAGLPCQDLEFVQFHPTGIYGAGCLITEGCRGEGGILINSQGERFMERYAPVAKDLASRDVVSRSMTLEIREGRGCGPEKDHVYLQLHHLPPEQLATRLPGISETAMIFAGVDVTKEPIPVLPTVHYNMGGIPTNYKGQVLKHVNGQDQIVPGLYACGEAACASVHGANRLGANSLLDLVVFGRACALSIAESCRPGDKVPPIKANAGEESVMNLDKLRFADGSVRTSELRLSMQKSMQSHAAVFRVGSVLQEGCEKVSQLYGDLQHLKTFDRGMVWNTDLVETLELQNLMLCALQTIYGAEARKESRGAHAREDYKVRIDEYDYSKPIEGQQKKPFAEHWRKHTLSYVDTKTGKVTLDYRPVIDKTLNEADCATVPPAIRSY
T3 sequence (P21913 31-282): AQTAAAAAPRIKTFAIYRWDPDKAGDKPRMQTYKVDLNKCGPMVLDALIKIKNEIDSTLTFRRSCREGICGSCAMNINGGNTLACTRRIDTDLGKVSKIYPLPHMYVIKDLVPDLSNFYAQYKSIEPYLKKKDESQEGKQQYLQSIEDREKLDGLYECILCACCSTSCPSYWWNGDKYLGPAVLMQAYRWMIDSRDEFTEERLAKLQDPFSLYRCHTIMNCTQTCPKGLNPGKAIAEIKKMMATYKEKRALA
T3 sequence (Q641Z9 30-169 limits assumed): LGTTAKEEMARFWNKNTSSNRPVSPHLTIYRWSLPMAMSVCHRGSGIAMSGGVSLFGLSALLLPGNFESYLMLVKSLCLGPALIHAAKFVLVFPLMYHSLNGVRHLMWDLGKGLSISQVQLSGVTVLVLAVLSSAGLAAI
T3 sequence (Q6PCT8 57-159): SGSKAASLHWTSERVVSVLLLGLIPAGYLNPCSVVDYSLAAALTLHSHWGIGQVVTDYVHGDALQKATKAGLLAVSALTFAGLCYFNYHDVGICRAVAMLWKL

[5] = biological target: T4, glycerol-3-phosphate dehydrogenase (GPDH) (Rattus norvegicus, UniProt P35571); assay: High-throughput screen: ROS production from glycerol-3-phosphate dehydrogenase (GPDH); assay type: biochemical; set-up: inhibition: dose or concentration left out as unconfirmed; settings: for inhibition: Table 7; for inhibition / GPDH: percent change in ROS from DMSO controls
T4 construct: The activity of GPDH in intact mitochondria (0.3 mg/mL) was measured; from tissue; host or cells: rat skeletal muscle mitochondria (Wistar, Harlan Laboratories)
T4 sequence (P35571 43-727): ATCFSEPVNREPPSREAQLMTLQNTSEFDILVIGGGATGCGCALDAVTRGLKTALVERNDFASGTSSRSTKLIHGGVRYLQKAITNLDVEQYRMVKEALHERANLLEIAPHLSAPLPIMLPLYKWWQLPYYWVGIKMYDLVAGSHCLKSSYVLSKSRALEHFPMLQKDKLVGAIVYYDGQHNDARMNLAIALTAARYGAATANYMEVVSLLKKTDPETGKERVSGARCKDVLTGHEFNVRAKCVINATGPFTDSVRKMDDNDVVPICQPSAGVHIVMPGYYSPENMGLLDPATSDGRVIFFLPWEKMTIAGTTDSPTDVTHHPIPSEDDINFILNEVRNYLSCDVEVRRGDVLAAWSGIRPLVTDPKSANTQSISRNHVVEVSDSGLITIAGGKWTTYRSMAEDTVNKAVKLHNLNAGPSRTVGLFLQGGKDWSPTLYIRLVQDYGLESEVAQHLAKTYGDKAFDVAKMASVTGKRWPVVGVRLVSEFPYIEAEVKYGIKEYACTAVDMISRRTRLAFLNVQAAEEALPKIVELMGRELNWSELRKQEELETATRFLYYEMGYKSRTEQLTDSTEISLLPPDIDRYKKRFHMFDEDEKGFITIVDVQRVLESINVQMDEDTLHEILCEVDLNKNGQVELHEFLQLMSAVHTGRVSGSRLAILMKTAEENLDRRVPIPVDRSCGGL

[6] = system: mitochondrial membrane potential (ΔΨm); assay: Membrane potential (ΔΨm) counterscreen with TMRM; settings: malate, nigericin
[7] = Table 3, 5 mM glutamate, 5 mM malate, 4 μM rotenone, compounds 2.5 μM, percent change from DMSO, positive control −100%, read-out: % Reduction in ROS production (IF)
[8] = Table 7, percent change in ROS from DMSO controls, read-out: IF
[9] = Table 8, percent change in ROS from DMSO controls
[10] = Table 9, percent change in ROS from DMSO controls
[11] = Table 7, percent change in ROS from DMSO controls, read-out: IIIQO
[12] = percent change in ROS from DMSO controls
[13] = Table 9, percent change in ROS from DMSO controls, read-out: IIIQo
[14] = Table 4, 5 mM succinate, 4 μM rotenone, 2.5 μM antimycin A, compounds 2.5 μM, percent change from DMSO, read-out: % Reduction in ROS production (IIIQO)

Row | inhibition at 2.5 µM [3, 11] [%] | IIIQO [3, 12] | inhibition at 2.5 µM [3, 13] [%] | inhibition at 2.5 µM [4] [%] | SDH ([4]; Table 8) | SDH ([4]; Table 9) | inhibition [5] [%] | GPDH ([5]; Table 8) | GPDH ([5]; Table 9) | SMILES | IQ ([1]; Table 7) | IQ ([1]; Table 8) | IQ ([1]; Table 9) | inhibition at 2.5 µM [2, 7] [%] | inhibition at 2.5 µM [2, 8] [%] | IF [2, 9] | IF [2, 10] | ΔΨm ([6]; Table 8, glutamate) | ΔΨm ([6]; Table 9, glutamate) | also measured
1 | -10 | 10.0 | -10 | 1 | −1.0 | −1.0 | 12.7 | −12.7 | −12.7 | O=C(O)/C=C/C(=O)Nc1ccc(/C=C/c2ccccc2)cc1 [Compound 49] | 1.7 | 1.7 | 1.7 | – | -1 | 1.0 | 1.0 | −0.3 | −0.3 | inhibition at 2.5 µM ([5]; Table 6, 25 mM glycerol phosphate, rotenone, antimycin A, malonate, myxothiazol, compounds 2.5 μM, scaled to IQ positive controls, read-out: % Reduction in ROS Production (GPDH)): 12.7%
2 | 2.5 | −2.5 | 2.5 | -1.3 | 1.3 | 1.3 | 2.3 | −2.3 | −2.3 | O=C(Nc1ccc(Br)cc1)[C@@H]1C2C=CC(C2)[C@@H]1C(=O)O (stereo partly shown) [Compound 28] | 0.2 | 0.2 | 0.2 | 19.1 | 19.1 | −19.1 | −19.1 | −1.3 | −1.3 | –
3 | 6 | −6.0 | 6 | 3.4 | −3.4 | −3.4 | 3.6 | −3.6 | −3.6 | COc1cccc(/C=C/C(=O)c2c(O)cc(C)oc2=O)c1O [Compound 17] | −7.4 | −7.4 | −7.4 | 26 | 26 | −26.0 | −26.0 | 0.3 | 0.3 | –
4 | – | −10 | – | – | −35 | – | – | 0 | – | Cc1cc(OCC(O)CN(Cc2ccccc2)C(C)(C)C)ccc1[N+](=O)[O-] (stereo not shown) [Compound 82] | – | −2 | – | – | – | −34 | – | 0 | – | % Reduction in ROS production (IF) ([2]; Table 3, 5 mM glutamate, 5 mM malate, 4 μM rotenone, compounds 2.5 μM, percent change from DMSO, positive control −100%): −34%; % Reduction in ROS Production (SDH) ([4]; Table 5, 15 μM palmitoyl carnitine, 2.5 μM antimycin A, 2 μM myxothiazol, compounds 2.5 μM, percent change from DMSO): −35%
5 | 3.3 | −3.3 | 3.3 | 0.1 | −0.1 | −0.1 | 2.5 | −2.5 | −2.5 | CCN(CC)CCN(CC)Cc1ccc(Cl)cc1Cl [Compound 25] | −0.6 | −0.6 | −0.6 | 19.7 | 19.7 | −19.7 | −19.7 | −0.4 | −0.4 | –
6 | 20.2 | −20.2 | 20.2 | – | – | – | -3.1 | 3.1 | 3.1 | C=C(C)CN(CC)Cc1cc([N+](=O)[O-])ccc1Cl [Compound 45] | −0.2 | −0.2 | −0.2 | – | -0.5 | 0.5 | 0.5 | 0.3 | 0.3 | inhibition at 2.5 µM [3, 14]: 20.2%
7 | 23.1 | −23.1 | 23.1 | – | – | – | 3.4 | −3.4 | −3.4 | CCCCN(Cc1ccccc1)Cc1cccc(Oc2ccc(Cl)cc2)c1 [Compound 44] | 0.4 | 0.4 | 0.4 | – | -3.1 | 3.1 | 3.1 | 1.0 | 1.0 | inhibition at 2.5 µM [3, 14]: 23.1%

More lines, now with the values behind:

Row | SMILES | inhibition at 2.5 µM [3, 11] [%] | IIIQO [3, 12] | inhibition at 2.5 µM [3, 13] [%] | inhibition at 2.5 µM [4] [%] | SDH ([4]; Table 8) | SDH ([4]; Table 9) | inhibition [5] [%] | GPDH ([5]; Table 8) | GPDH ([5]; Table 9) | IQ ([1]; Table 7) | IQ ([1]; Table 8) | IQ ([1]; Table 9) | inhibition at 2.5 µM [2, 7] [%] | inhibition at 2.5 µM [2, 8] [%] | IF [2, 9] | IF [2, 10] | ΔΨm ([6]; Table 8, glutamate) | ΔΨm ([6]; Table 9, glutamate) | also measured
8 | COc1ccccc1/C=C/c1nc(O)nc(O)c1[N+](=O)[O-] [Compound 16] | -6.6 | 6.6 | -6.6 | -4.2 | 4.2 | 4.2 | 0.6 | −0.6 | −0.6 | −5.4 | −5.4 | −5.4 | 26.7 | 26.7 | −26.7 | −26.7 | −0.3 | −0.3 | –
9 | CC(C)Cc1ccc(C(C)C(=O)Nc2ccccc2O)cc1 (stereo not shown) [Compound 5] | 3.6 | −3.6 | 3.6 | -2.3 | 2.3 | 2.3 | -0.7 | 0.7 | 0.7 | −40.0 | −40.0 | −40.0 | – | -0.2 | 0.2 | 0.2 | −3.5 | −3.5 | % Reduction in ROS production (IQ) [1]: −40.0%
10 | Cl.OC12CCCCC1C(c1cccc(Cl)c1)NCC2 (stereo not shown) [Compound 51] | 9.8 | −9.8 | 9.8 | 1.8 | −1.8 | −1.8 | 12 | −12.0 | −12.0 | −2.8 | −2.8 | −2.8 | – | -5.5 | 5.5 | 5.5 | 0.9 | 0.9 | –
11 | Cc1ccc(NS(=O)(=O)c2ccc(C3CCCCC3)cc2)cc1 [Compound 6] | 3.4 | −3.4 | 3.4 | 1.1 | −1.1 | −1.1 | 2.3 | −2.3 | −2.3 | −38.6 | −38.6 | −38.6 | – | -3.6 | 3.6 | 3.6 | 0.0 | 0.0 | % Reduction in ROS production (IQ) [1]: −38.6%
12 | CCCN(CCO)Cc1ccc2c(c1)c1ccccc1n2CC [Compound 15] | 7.5 | −7.5 | 7.5 | 2.7 | −2.7 | −2.7 | 2.5 | −2.5 | −2.5 | −0.1 | −0.1 | −0.1 | 27.6 | 27.6 | −27.6 | −27.6 | −0.9 | −0.9 | –
13 | Cc1ccccc1NS(=O)(=O)c1ccc(C2CCCCC2)cc1 [Compound 9] | 2.7 | −2.7 | 2.7 | -0.3 | 0.3 | 0.3 | -1 | 1.0 | 1.0 | −31.2 | −31.2 | −31.2 | – | -0.4 | 0.4 | 0.4 | −0.1 | −0.1 | % Reduction in ROS production (IQ) [1]: −31.2%
